Assay [1] concerns the target T1, MAGL (Mus musculus (Mouse), UniProt O35678). The assay is described as follows: In vitro competitive activity-based protein profiling, MAGL (mouse). The format is biochemical. As to conditions: for inhibition at 1 µM: read-out: MAGL % inh. 1 μM (mouse). The essentials: (§1)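 Gel-based read-out: fluorescence intensity of MAGL and FAAH bands after SDS-PAGE gave serine hydrolase activity. Proteomes at 1.0 mg/mL were pretreated 30 min at 37° C with inhibitor over a concentration range, then labelled 30 min with FP-Rh or HT-01 (stock 50 μM in DMSO).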

The target in assay [2] is T1, MAGL. The assay is described as follows: Mouse brain proteomes from inhibitor treated mice (oral gavage, 4 h), MAGL. In kind it is in vivo. As to conditions: read-out: MAGL % inh. 5 mg/kg (mouse). The procedure:
Preparation of Mouse Brain Proteomes from Inhibitor Treated Mice.
Inhibitors were administered to wild-type C57Bl/6J by oral gavage in a vehicle of polyethylene glycol. Each animal was sacrificed 4 h following administration and brain proteomes were prepared and analyzed according to previously established methods (See Niphakis, M. J., et al. (2011) ACS Chem. Neurosci. and Long, J. Z., et al. Nat. Chem. Biol. 5:37-44).

The target in a further assay is FAAH (Mus musculus (Mouse), UniProt O08914). The assay is described as follows: In vitro competitive activity-based protein profiling, FAAH (mouse). The format is biochemical. The following applies: for inhibition at 1 µM: read-out: FAAH % inh. 1 μM (mouse). The essentials: as §1

IC50 and inhibition data for six compounds are collected here from patent US10323038B2, “Pyrazole compounds and methods of making and using same” (ABIDE THERAPEUTICS, INC., priority 2015, dated 2019).

T1 sequence (O35678 whole entry): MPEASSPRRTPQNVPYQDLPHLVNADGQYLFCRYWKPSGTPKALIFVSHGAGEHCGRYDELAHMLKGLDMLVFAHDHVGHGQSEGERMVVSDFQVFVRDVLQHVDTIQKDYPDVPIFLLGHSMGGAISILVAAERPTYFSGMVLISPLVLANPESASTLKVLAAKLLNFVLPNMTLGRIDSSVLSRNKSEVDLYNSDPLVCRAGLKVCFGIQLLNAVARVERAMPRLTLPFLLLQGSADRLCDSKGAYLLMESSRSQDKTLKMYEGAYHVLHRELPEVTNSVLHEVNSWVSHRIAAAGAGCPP
FAAH, sequence (O08914 whole entry): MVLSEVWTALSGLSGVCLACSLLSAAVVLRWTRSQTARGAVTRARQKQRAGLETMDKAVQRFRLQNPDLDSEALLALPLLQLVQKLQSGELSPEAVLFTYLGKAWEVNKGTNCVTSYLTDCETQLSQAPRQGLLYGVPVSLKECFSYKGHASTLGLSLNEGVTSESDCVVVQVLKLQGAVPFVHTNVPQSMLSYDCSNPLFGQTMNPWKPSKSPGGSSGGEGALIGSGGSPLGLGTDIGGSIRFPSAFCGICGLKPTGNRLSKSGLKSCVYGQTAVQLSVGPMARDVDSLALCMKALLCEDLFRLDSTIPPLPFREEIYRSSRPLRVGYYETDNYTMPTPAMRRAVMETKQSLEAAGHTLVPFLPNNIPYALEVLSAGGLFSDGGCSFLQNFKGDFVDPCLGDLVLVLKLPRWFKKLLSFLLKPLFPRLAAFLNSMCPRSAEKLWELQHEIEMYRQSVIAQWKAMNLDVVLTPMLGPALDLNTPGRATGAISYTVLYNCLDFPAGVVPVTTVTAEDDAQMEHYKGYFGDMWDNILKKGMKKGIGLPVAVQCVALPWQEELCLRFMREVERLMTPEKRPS

Take `Cc1cc(-c2ccccc2)ccc1CN1CCN(C(=O)n2cc(NS(C)(=O)=O)cn2)CC1` [Example 219, N-(1-(4-((3-methyl-[1,1′-biphenyl]-4-yl)methyl)piperazine-1-carbonyl)-1H-pyrazol-4-yl)methanesulfonamide]: at MAGL [1], the IC50 is 1 to 10 µM and the inhibition at 1 µM was not below 75%. Further, the inhibition at 5 mg/kg on MAGL [2] was not below 75%. Further, on FAAH, the IC50 is not above 0.1 µM and the inhibition at 1 µM is not below 75%.
Take `CC(=O)N(C)c1cnn(C(=O)N2CCC3(CCN(Cc4cccc(Oc5ccccc5)c4)C3)C2)c1` (stereo not shown) [Example 236, N-methyl-N-(1-(7-(3-phenoxybenzyl)-2,7-diazaspiro[4.4]nonane-2-carbonyl)-1H-pyrazol-4-yl)acetamide]: at MAGL [1], the IC50 was in the range of 0.1 to 1 µM and the inhibition at 1 µM was not below 75%. The inhibition at 5 mg/kg on MAGL [2] lay in the range of 25 to 50%. Moreover, at FAAH, the IC50 was not above 0.1 µM and the inhibition at 1 µM was not below 75%.
With `CC(=O)N(C)c1cnn(C(=O)N2CC3CN(Cc4ccc(Oc5cncnc5)cc4Cl)CC3C2)c1` (stereo not shown) [Example 274, N-(1-(5-(2-chloro-4-(pyrimidin-5-yloxy)benzyl)octahydropyrrolo[3,4-c]pyrrole-2-carbonyl)-1H-pyrazol-4-yl)-N-methylacetamide], at MAGL [1], the IC50 was not above 0.1 µM and the inhibition at 1 µM is not below 75%. Moreover, the inhibition at 5 mg/kg on MAGL [2] was in the range of 0 to 25%. Also, on FAAH, the IC50 fell in the range of 0.1 to 1 µM and the inhibition at 1 µM was not below 75%.
As for `CS(=O)(=O)Nc1cnn(C(=O)N2CCN(Cc3ccc(N4CCCC4)cc3C(F)(F)F)CC2)c1` [Example 292, N-(1-(4-(4-(pyrrolidin-1-yl)-2-(trifluoromethyl)benzyl)piperazine-1-carbonyl)-1H-pyrazol-4-yl)methanesulfonamide], the IC50 at MAGL [1] is not above 0.1 µM; on FAAH it was 1 to 10 µM. Moreover, the inhibition at 1 µM at MAGL [1] is 25 to 50%; at FAAH, not below 75%. For the same compound, the inhibition at 5 mg/kg at MAGL [2] fell in the range of 50 to 75%.
Consider `CS(=O)(=O)Nc1cnn(C(=O)N2CCC3(CCN(Cc4cc(Cl)cc(C(F)(F)F)c4)C3)CC2)c1` [Example 297, N-(1-(2-(3-chloro-5-(trifluoromethyl)benzyl)-2,8-diazaspiro[4.5]decane-8-carbonyl)-1H-pyrazol-4-yl)methanesulfonamide], for which the IC50 on MAGL [1] and at FAAH was not above 0.1 µM throughout. Further, the inhibition at 1 µM at MAGL [1] and at FAAH was not below 75% each time. The inhibition at 5 mg/kg on MAGL [2] was not below 75%.
`CC(=O)Nc1cnn(C(=O)N2CCC3(CCN(Cc4cc(Cl)cc(C(F)(F)F)c4)C3)CC2)c1` [Example 313, N-(1-(2-(3-chloro-5-(trifluoromethyl)benzyl)-2,8-diazaspiro[4.5]decane-8-carbonyl)-1H-pyrazol-4-yl)acetamide]: the inhibition at 1 µM at MAGL [1] and at FAAH was not below 75% each time. The inhibition at 5 mg/kg on MAGL [2] is not below 75%.

For orientation: IC50 means the concentration needed to halve the response being measured. Lower therefore signals greater potency.
